Data taken from ChEMBL document CHEMBL6087416, “Discovery of novel fused-heterocycle-bearing diarypyrimidine derivatives as HIV-1 potent NNRTIs targeting tolerant region I for enhanced antiviral activity and resistance profile” (Eur J Med Chem, 2025).

Experiments:
[1] = Cytotoxicity against human MT4 cells assessed as reduction in cell viability measured after 5 days by MTT assay; assay type: toxicity, cell-based; conditions: time 5 day
[2] = in vitro; conditions: human, MT4 cells
Description: Selectivity index, ratio of CC50 for human MT4 cells to EC50 for HIV-2 ROD infected in human MT4 cells

[3] = biological target: Human immunodeficiency virus type 1 reverse transcriptase (Human immunodeficiency virus 1, UniProt Q72547); assay: Inhibition of wild type HIV-1 Reverse transcriptase incubated for 1 hrs by ELISA analysis
[4] = test system: Human immunodeficiency virus 2; assay: Antiviral activity against HIV-2 ROD infected in human MT4 cells assessed as protection against virus-induced cytopathic effect incubated for 5 days by MTT assay; assay type: functional, organism-based; conditions: Human immunodeficiency virus 2, ROD, MT4, 120 h
[5] = test system: Human immunodeficiency virus 1; assay type: functional, organism-based; conditions: Human immunodeficiency virus 1, RES056, MT4, 120 h
[6] = test system: Human immunodeficiency virus 1; assay: microbe, parasite or virus in culture; conditions: Human immunodeficiency virus 1, IIIB, MT4, 120 h
Description: Antiviral activity against wild type HIV-1 IIIB infected in human MT4 cells assessed as protection against virus-induced cytopathic effect incubated for 5 days by MTT assay

[7] = in vitro; conditions: human, MT4 cells; remark: listed apart in the source
Description: Selectivity index, ratio of CC50 for human MT4 cells to EC50 for wild type HIV-1 IIIB infected in human MT4 cells

[8] = in vitro; conditions: human, MT4 cells; remark: listed apart in the source
Description: Selectivity index, ratio of CC50 for human MT4 cells to EC50 for HIV-1 RES056 harboring RT K103N/Y181C mutant infected in human MT4 cells

[9] = test system: Human immunodeficiency virus 1; assay type: functional, organism-based; conditions: Human immunodeficiency virus 1, MT4, 120 h
[10] = test system: Human immunodeficiency virus 1; assay type: functional, organism-based; conditions: Human immunodeficiency virus 1, MT4, 120 h; remark: listed apart in the source
[11] = test system: Human immunodeficiency virus 1; assay type: functional, organism-based; conditions: Human immunodeficiency virus 1, MT4, 120 h; remark: listed apart in the source
[12] = test system: Human immunodeficiency virus 1; assay: Antiviral activity against NNRTI-resistant HIV-1 harboring RT E138K mutant infected in human MT4 cells assessed as protection against virus-induced cytopathic effect incubated for 5 days by MTT assay; assay type: functional, organism-based; conditions: Human immunodeficiency virus 1, MT4, 120 h
[13] = test system: Human immunodeficiency virus 1; assay: Antiviral activity against NNRTI-resistant HIV-1 harboring RT K103N mutant infected in human MT4 cells assessed as protection against virus-induced cytopathic effect incubated for 5 days by MTT assay; assay type: functional, organism-based; conditions: Human immunodeficiency virus 1, MT4, 120 h
[14] = test system: Human immunodeficiency virus 1; assay: Antiviral activity against NNRTI-resistant HIV-1 harboring RT L100I mutant infected in human MT4 cells assessed as protection against virus-induced cytopathic effect incubated for 5 days by MTT assay; assay type: functional, organism-based; conditions: Human immunodeficiency virus 1, MT4, 120 h
[15] = test system: Human immunodeficiency virus 1; assay: Potency index, ratio of Nevirapine EC50 to test compound EC50 for antiviral activity against NNRTI-resistant HIV-1 harboring RT K103N mutant infected in human MT4 cells assessed as protection against virus-induced cytopathic effect incubated for 5 days by MTT assay; assay type: functional; conditions: time 5 day
[16] = test system: Human immunodeficiency virus 1; assay: Potency index, ratio of Efavirenz EC50 to test compound EC50 for antiviral activity against NNRTI-resistant HIV-1 harboring RT K103N mutant infected in human MT4 cells assessed as protection against virus-induced cytopathic effect incubated for 5 days by MTT assay; assay type: functional; conditions: time 5 day
[17] = test system: Human immunodeficiency virus 1; assay: Potency index, ratio of Zidovudine EC50 to test compound EC50 for antiviral activity against NNRTI-resistant HIV-1 harboring RT K103N mutant infected in human MT4 cells assessed as protection against virus-induced cytopathic effect incubated for 5 days by MTT assay; assay type: functional; conditions: time 5 day
[18] = test system: Human immunodeficiency virus 1; assay: Potency index, ratio of doravirine EC50 to test compound EC50 for antiviral activity against NNRTI-resistant HIV-1 harboring RT K103N mutant infected in human MT4 cells assessed as protection against virus-induced cytopathic effect incubated for 5 days by MTT assay; assay type: functional; conditions: time 5 day

| SMILES | CC50 at 120 h [1] | selectivity ratio [2] | IC50 [3] | EC50 [4] | EC50 [5] | EC50 [6] | selectivity ratio [7] | selectivity ratio [8] | EC50 [9] | EC50 [10] | EC50 [11] | EC50 [12] | EC50 [13] | EC50 [14] | Ratio EC50 [15] | Ratio EC50 [16] | Ratio EC50 [17] | Ratio EC50 [18] |
| --- | --- | --- | --- | --- | --- | --- | --- | --- | --- | --- | --- | --- | --- | --- | --- | --- | --- | --- |
| Cc1cc(/C=C/C#N)cc(C)c1Oc1ccnc(Nc2ccc3c(c2)OCO3)n1 | 40.8 µM | 4.98 | 0.026 µM | 8.2 µM | 2.22 µM | 0.008 µM | 5260 | 18 | – | – | – | – | – | – | – | – | – | – |
| Cc1cc(/C=C/C#N)cc(C)c1Oc1ccnc(Nc2ccc3nsnc3c2)n1 | 20.6 µM | 16.4 | 0.037 µM | 1.26 µM | 0.56 µM | 0.007 µM | 2850 | 37 | – | – | – | – | – | – | – | – | – | – |
| Cc1cc(/C=C/C#N)cc(C)c1Oc1ccnc(Nc2ccc3scnc3c2)n1 | 50.2 µM | 7.13 | 0.043 µM | 7.04 µM | 0.95 µM | 0.002 µM | 26700 | 506 | 1.23 µM | 0.068 µM | 1.37 µM | 0.017 µM | 0.006 µM | 0.029 µM | – | – | – | – |
| Cc1cc(/C=C/C#N)cc(C)c1Oc1ccnc(Nc2ccc3c(c2)C(=O)N(C)C3=O)n1 | > 294 µM | > 1.78 | 0.054 µM | 165 µM | 4.67 µM | 0.006 µM | > 52500 | > 63 | – | – | – | – | – | – | – | – | – | – |
| Cc1cc(/C=C/C#N)cc(C)c1Oc1ccnc(Nc2ccc3c(c2)COC3)n1 | 14 µM | – | 0.029 µM | > 14 µM | 1.08 µM | 0.002 µM | 7440 | 573 | 0.7 µM | 0.099 µM | 4.9 µM | 0.039 µM | 0.006 µM | 0.047 µM | – | – | – | – |
| Cc1cc(/C=C/C#N)cc(C)c1Oc1ccnc(Nc2ccc3c(c2)C(=O)NCC3)n1 | 3.19 µM | – | 0.046 µM | > 3.19 µM | 1.34 µM | 0.003 µM | 1220 | 2 | > 3.19 µM | 0.044 µM | > 3.19 µM | 0.021 µM | 0.011 µM | 0.014 µM | – | – | – | – |
| Cc1cc(/C=C/C#N)cc(C)c1Oc1ccnc(Nc2ccc3nncn3c2)n1 | 21.9 µM | – | 0.025 µM | 6.14 µM | 0.35 µM | 0.002 µM | 11500 | 182 | 0.58 µM | 0.032 µM | 0.81 µM | 0.011 µM | 0.002 µM | 0.009 µM | 2747 | 50 | 19 | 5 |
| Cc1cn([C@H]2C[C@H](N=[N+]=[N-])[C@@H](CO)O2)c(=O)[nH]c1=O [ZIDOVUDINE] | > 7.48 µM | > 192 | – | 0.039 µM | 0.035 µM | 0.04 µM | > 186 | > 215 | – | 0.041 µM | 0.04 µM | 0.047 µM | 0.036 µM | 0.014 µM | – | – | – | – |
| Cc1cc(/C=C/C#N)cc(C)c1Oc1ccnc(Nc2ccc3nccn3c2)n1 | 28.7 µM | – | 0.029 µM | > 28.7 µM | 1.45 µM | 0.002 µM | 14600 | 20 | 0.96 µM | 0.21 µM | 3.91 µM | 0.058 µM | 0.008 µM | 0.064 µM | – | – | – | – |
| Cc1cc(/C=C/C#N)cc(C)c1Oc1ccnc(Nc2ccc3occc3c2)n1 | 216 µM | 4.74 | 0.055 µM | 45.5 µM | 8.59 µM | 0.007 µM | 31100 | 25 | – | – | – | – | – | – | – | – | – | – |
| Cc1cc(/C=C/C#N)cc(C)c1Oc1ccnc(Nc2ccc3cnsc3c2)n1 | 10.1 µM | – | 0.019 µM | > 10.1 µM | 0.45 µM | 0.002 µM | 4140 | 22 | 0.5 µM | 0.048 µM | 0.99 µM | 0.014 µM | 0.004 µM | 0.014 µM | – | – | – | – |
| Cc1cc(/C=C/C#N)cc(C)c1Oc1ccnc(Nc2ccc3c(c2)NC(=O)C3)n1 | > 50.3 µM | – | 0.053 µM | > 50.3 µM | 33.7 µM | 0.002 µM | > 27600 | > 1 | 14.4 µM | 0.072 µM | > 50.3 µM | 0.046 µM | 0.004 µM | 0.054 µM | – | – | – | – |
